Laboratory results from patent US20160376240A1, “6 Phenyl or 6 Pyridin 3 YL Indazole Derivatives and Methods of Use” (ABBVIE INC., priority 2014, published 2016).

Target: T1, TrkA (Homo sapiens, UniProt P04629)
T1 construct: purchased Invitrogen PV3144
Assay: TrkA kinase inhibition, HTRF assay
Assay type: biochemical
Conditions: LCK peptide substrate 125 nM, TrkA 2-10 nM pre-incubated with ATP 200 μM
Description: TrkA, TrkB, and TrkC enzymes were obtained from Invitrogen (as catalog numbers PV3144, PV3616, and PV3617, respectively). The ability of a compound to inhibit the enzymatic activity of the TrkA, TrkB, and TrkC enzymes was determined in separate assays. Enzyme activity was measured in an HTRF® (homogeneous time resolved fluorescence) assay, which detects enzymatic phosphorylation of a biotinylated synthetic peptide substrate (an LCK peptide analog, biotin-ahx-GAEEEIYAAFFA, from Genemed Synthesis). Phosphorylation is assessed by HTRF® in the presence of an anti-phosphotyrosine antibody conjugated to Eu^3+ cryptate (Cisbio) as donor fluorophore, and streptavidin conjugated to allophycocyanin (ProZyme) as acceptor fluorophore. The HTRF® signal was detected at two different wavelengths (620 nm and 665 nm) which were used to calculate the fluorescence ratio.
Each enzyme was titrated to a concentration optimized to ensure accurate measurement of the initial reaction rate. To allow the Trk enzymes to undergo activation and auto-phosphorylation, a 20 minute pre-incubation with ATP was carried out (at twice the final targeted enzyme and ATP concentration) prior to addition of test compound and the peptide substrate.
TrkA in vitro assays were performed by pre-incubating TrkA (2-10 nM) with ATP (200 μM) for 20 minutes at ambient temperature in 50 mM HEPES pH 7.4, 10 mM MgCl2, 2 mM MnCl2, 100 μM Na3VO4, 1 mM dithiothreitol, 0.01% BSA (bovine serum albumin). Then, to the activated Trk enzyme mixture was added the test compound in 2% dimethyl sulfoxide. After 10 minutes, the peptide substrate (125 nM) was added. After 1 hour, enzyme reactions were terminated by addition of equal reaction volumes of detection/stop reagent (containing 0.2 μg/mL anti-phosphotyrosine monoclonal antibody labeled with europium from Cisbio (catalog# PT66-K), and 4 μg/mL PhycoLink® Streptavidin-Allophycocyanin conjugate from ProZyme (catalog# PJ25S) in 60 mM EDTA in 40 mM HEPES pH 7.4, 480 mM KF, 0.01% Tween® 20 and 0.1% BSA bovine serum albumin) Reaction plates were stored at 4° C. overnight before reading the fluorescence ratio signal on a PerkinElmer EnVision™ fluorescence detector. Individual reaction wells were stopped at time points to obtain reaction rates. The test inhibitor compounds were assayed in duplicate, at half-log serial dilutions over a range of concentrations (e.g. starting at 50 μM or 5 μM as the high compound concentration). The percent Trk enzyme inhibition was calculated from the initial rates of the inhibited reactions relative to the uninhibited control. IC50 values were calculated by fitting the inhibition percent to the concentration of inhibitor [I] in the assay in equation 1 below, to solve for the IC50.
Inhibition %=100[I]/([I]+[IC50]) equation 1

T1 sequence (P04629 33-796): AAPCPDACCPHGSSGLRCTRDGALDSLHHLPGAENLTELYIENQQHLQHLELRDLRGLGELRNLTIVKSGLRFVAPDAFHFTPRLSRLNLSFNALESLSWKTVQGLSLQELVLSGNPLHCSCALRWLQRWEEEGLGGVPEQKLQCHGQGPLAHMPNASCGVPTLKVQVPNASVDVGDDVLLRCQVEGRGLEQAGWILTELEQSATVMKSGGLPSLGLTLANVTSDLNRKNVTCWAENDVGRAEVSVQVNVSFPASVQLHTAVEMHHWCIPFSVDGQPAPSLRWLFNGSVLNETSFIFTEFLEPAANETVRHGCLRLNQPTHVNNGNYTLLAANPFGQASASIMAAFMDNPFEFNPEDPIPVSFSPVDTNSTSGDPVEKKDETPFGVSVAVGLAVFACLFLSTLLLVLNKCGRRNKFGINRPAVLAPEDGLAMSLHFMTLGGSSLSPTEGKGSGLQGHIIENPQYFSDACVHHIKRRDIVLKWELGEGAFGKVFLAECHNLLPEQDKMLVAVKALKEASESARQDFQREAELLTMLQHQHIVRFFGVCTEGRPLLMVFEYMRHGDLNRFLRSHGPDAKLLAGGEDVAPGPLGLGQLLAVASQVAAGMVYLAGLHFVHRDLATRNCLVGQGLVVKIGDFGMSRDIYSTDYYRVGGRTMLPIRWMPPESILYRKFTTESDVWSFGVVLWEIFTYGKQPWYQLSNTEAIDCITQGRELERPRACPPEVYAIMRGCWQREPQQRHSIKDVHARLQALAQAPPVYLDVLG

Row | SMILES | IC50
1 | CNC(=O)c1ccc(-c2cc(O[C@H](C)C(F)(F)F)c3c(N)n[nH]c3c2)cc1N1CCN(c2ccccc2)CC1 [Example 48, 4-(3-amino-4-{[(2R)-1,1,1-trifluoropropan-2-yl]oxy}-1H-indazol-6-yl)-N-methyl-2-(4-phenylpiperazin-1-yl)benzamide] | 38.5 nM
2 | CNC(=O)c1ccc(-c2cc(O[C@H](C)C(F)(F)F)c3c(N)n[nH]c3c2)cc1N1CCN(c2cccnc2)CC1 [Example 49, 4-(3-amino-4-{[(2R)-1,1,1-trifluoropropan-2-yl]oxy}-1H-indazol-6-yl)-N-methyl-2-[4-(pyridin-3-yl)piperazin-1-yl]benzamide] | 141 nM
3 | CNC(=O)c1ccc(-c2cc(O[C@H](C)C(F)(F)F)c3c(N)n[nH]c3c2)cc1N1CCN(C2CCC2)CC1 [Example 50, 4-(3-amino-4-{[(2R)-1,1,1-trifluoropropan-2-yl]oxy}-1H-indazol-6-yl)-2-(4-cyclobutylpiperazin-1-yl)-N-methylbenzamide] | 530 nM
4 | CNC(=O)c1ccc(-c2cc(O[C@H](C)C(F)(F)F)c3c(N)n[nH]c3c2)cc1N1CCN(CCC(C)(C)C)CC1 [Example 51, 4-(3-amino-4-{[(2R)-1,1,1-trifluoropropan-2-yl]oxy}-1H-indazol-6-yl)-2-[4-(3,3-dimethylbutyl)piperazin-1-yl]-N-methylbenzamide] | 75.4 nM
5 | CNC(=O)c1ccc(-c2cc(O[C@H](C)C(F)(F)F)c3c(N)n[nH]c3c2)cc1N1CCN(c2ncccn2)CC1 [Example 52, 4-(3-amino-4-{[(2R)-1,1,1-trifluoropropan-2-yl]oxy}-1H-indazol-6-yl)-N-methyl-2-[4-(pyrimidin-2-yl)piperazin-1-yl]benzamide] | 27.2 nM
6 | CNC(=O)c1ccc(-c2cc(O[C@H](C)C(F)(F)F)c3c(N)n[nH]c3c2)cc1N1CCN(C2CCCC2)CC1 [Example 53, 4-(3-amino-4-{[(2R)-1,1,1-trifluoropropan-2-yl]oxy}-1H-indazol-6-yl)-2-(4-cyclopentylpiperazin-1-yl)-N-methylbenzamide] | 44.4 nM
7 | CNC(=O)c1ccc(-c2cc(O[C@H](C)C(F)(F)F)c3c(N)n[nH]c3c2)cc1N1CCN(C(=O)C(C)(C)C)CC1 [Example 54, 4-(3-amino-4-{[(2R)-1,1,1-trifluoropropan-2-yl]oxy}-1H-indazol-6-yl)-2-[4-(2,2-dimethylpropanoyl)piperazin-1-yl]-N-methylbenzamide] | 101 nM
8 | CNC(=O)c1ccc(-c2cc(O[C@H](C)C(F)(F)F)c3c(N)n[nH]c3c2)cc1N1CCN(c2cnccn2)CC1 [Example 55, 4-(3-amino-4-{[(2R)-1,1,1-trifluoropropan-2-yl]oxy}-1H-indazol-6-yl)-N-methyl-2-[4-(pyrazin-2-yl)piperazin-1-yl]benzamide] | 121 nM
9 | CNC(=O)c1ccc(-c2cc(O[C@H](C)C(F)(F)F)c3c(N)n[nH]c3c2)cc1N1CCN2CCCCC2C1 (stereo partly drawn) [Example 57, 4-(3-amino-4-{[(2R)-1,1,1-trifluoropropan-2-yl]oxy}-1H-indazol-6-yl)-N-methyl-2-(octahydro-2H-pyrido[1,2-a]pyrazin-2-yl)benzamide] | 6320 nM
10 | CNC(=O)c1ccc(-c2cc(O[C@H](C)C(F)(F)F)c3c(N)n[nH]c3c2)cc1N1CCOC(CC(C)C)C1 (stereo partly drawn) [Example 58, 4-(3-amino-4-{[(2R)-1,1,1-trifluoropropan-2-yl]oxy}-1H-indazol-6-yl)-2-(2-isobutylmorpholin-4-yl)-N-methylbenzamide] | 673 nM
11 | CNC(=O)c1ccc(-c2cc(O[C@H](C)C(F)(F)F)c3c(N)n[nH]c3c2)cc1N1CCC(N2CCOCC2)CC1 [Example 59, 4-(3-amino-4-{[(2R)-1,1,1-trifluoropropan-2-yl]oxy}-1H-indazol-6-yl)-N-methyl-2-[4-(morpholin-4-yl)piperidin-1-yl]benzamide] | 2550 nM
12 | CNC(=O)c1ccc(-c2cc(O[C@H](C)C(F)(F)F)c3c(N)n[nH]c3c2)cc1N1CCC(O)(c2ccccc2)CC1 [Example 60, 4-(3-amino-4-{[(2R)-1,1,1-trifluoropropan-2-yl]oxy}-1H-indazol-6-yl)-2-(4-hydroxy-4-phenylpiperidin-1-yl)-N-methylbenzamide] | 223 nM
13 | CNC(=O)c1ccc(-c2cc(O[C@H](C)C(F)(F)F)c3c(N)n[nH]c3c2)cc1N1CCC(C2CCCCC2)CC1 [Example 61, 4-(3-amino-4-{[(2R)-1,1,1-trifluoropropan-2-yl]oxy}-1H-indazol-6-yl)-2-(4-cyclohexylpiperidin-1-yl)-N-methylbenzamide] | 135 nM
14 | CN1CCC(Oc2cc(-c3ccc(C(=O)NC4CC4)c(N4CCN(c5ccccc5)CC4)c3)cc3[nH]nc(N)c23)CC1 [Example 62, 4-{3-amino-4-[(1-methylpiperidin-4-yl)oxy]-1H-indazol-6-yl}-N-cyclopropyl-2-(4-phenylpiperazin-1-yl)benzamide] | 67.1 nM
15 | NC(=O)c1ccc(-c2cc(OC3CCNCC3)c3c(N)n[nH]c3c2)cc1N1CCN(c2ccccc2)CC1 [Example 63, 4-[3-amino-4-(piperidin-4-yloxy)-1H-indazol-6-yl]-2-(4-phenylpiperazin-1-yl)benzamide] | 25.3 nM
16 | CC(=O)N1CCC(Oc2cc(-c3ccc(C(N)=O)c(N4CCN(c5ccccc5)CC4)c3)cc3[nH]nc(N)c23)CC1 [Example 64, 4-{4-[(1-acetylpiperidin-4-yl)oxy]-3-amino-1H-indazol-6-yl}-2-(4-phenylpiperazin-1-yl)benzamide] | 8.45 nM
17 | NC(=O)c1ccc(-c2cc(O[C@H]3CCOC3)c3c(N)n[nH]c3c2)cc1N1CCN(C2CC2)CC1 [Example 65, 4-{3-amino-4-[(3S)-tetrahydrofuran-3-yloxy]-1H-indazol-6-yl}-2-(4-cyclopropylpiperazin-1-yl)benzamide] | 173 nM
18 | NC(=O)c1ccc(-c2cc(O[C@H]3CCOC3)c3c(N)n[nH]c3c2)cc1N1CCN(c2ccccc2)CC1 [Example 66, 4-{3-amino-4-[(3S)-tetrahydrofuran-3-yloxy]-1H-indazol-6-yl}-2-(4-phenylpiperazin-1-yl)benzamide] | 2.93 nM
19 | NC(=O)c1ccc(-c2cc(O[C@H]3CCOC3)c3c(N)n[nH]c3c2)cc1N1CCN(c2cccnc2)CC1 [Example 67, 4-{3-amino-4-[(3S)-tetrahydrofuran-3-yloxy]-1H-indazol-6-yl}-2-[4-(pyridin-3-yl)piperazin-1-yl]benzamide] | 7.97 nM
20 | NC(=O)c1ccc(-c2cc(O[C@@H]3CCOC3)c3c(N)n[nH]c3c2)cc1N1CCN(c2cccnc2)CC1 [Example 68, 4-{3-amino-4-[(3R)-tetrahydrofuran-3-yloxy]-1H-indazol-6-yl}-2-[4-(pyridin-3-yl)piperazin-1-yl]benzamide] | 8.06 nM
21 | NC(=O)c1ccc(-c2cc(OC3CCCC3)c3c(N)n[nH]c3c2)cc1N1CCN(c2ccccn2)CC1 [Example 75, 4-[3-amino-4-(cyclopentyloxy)-1H-indazol-6-yl]-2-[4-(pyridin-2-yl)piperazin-1-yl]benzamide] | 2.31 nM
22 | NC(=O)c1ccc(-c2cc(OC3CCCC3)c3c(N)n[nH]c3c2)cc1N1CCC(c2ccccc2)CC1 [Example 76, 4-[3-amino-4-(cyclopentyloxy)-1H-indazol-6-yl]-2-(4-phenylpiperidin-1-yl)benzamide] | 24.5 nM
23 | NC(=O)c1ccc(-c2cc(OC3CCCC3)c3c(N)n[nH]c3c2)cc1N1CCN(C2CC2)CC1 [Example 78, 4-[3-amino-4-(cyclopentyloxy)-1H-indazol-6-yl]-2-(4-cyclopropylpiperazin-1-yl)benzamide] | 20.1 nM
24 | NC(=O)c1ccc(-c2cc(OC3CCCC3)c3c(N)n[nH]c3c2)cc1N1CCC(C(N)=O)CC1 [Example 79, 1-{5-[3-amino-4-(cyclopentyloxy)-1H-indazol-6-yl]-2-carbamoylphenyl}piperidine-4-carboxamide] | 221 nM
25 | NC(=O)c1ccc(-c2cc(OC3CCCC3)c3c(N)n[nH]c3c2)cc1N1CCN(C(=O)c2ccccc2)CC1 [Example 80, 4-[3-amino-4-(cyclopentyloxy)-1H-indazol-6-yl]-2-(4-benzoylpiperazin-1-yl)benzamide] | 17.5 nM
26 | NC(=O)c1ccc(-c2cc(OC3CCCC3)c3c(N)n[nH]c3c2)cc1N1CCN(C(=O)C2CC2)CC1 [Example 81, 4-[3-amino-4-(cyclopentyloxy)-1H-indazol-6-yl]-2-[4-(cyclopropylcarbonyl)piperazin-1-yl]benzamide] | 17.4 nM
